Experimental data taken from patent US20240325353A1, “COMPOUND FOR TREATMENT OF COGNITIVE DISORDERS” (Syndesi Therapeutics SA, priority 2021, published 2024).

Tested on: brain activity (BOLD signal)
Assay: pharmaco-MRI (BOLD) neuroimaging study in conscious rats
Type: in vivo, rat
Details: for median number of positive voxels (positive BOLD volume of activation): 20-30 min post injection
Protocol: Test Substance, Reference Substance(s), and Vehicle: the compound of example 1 test substance for dose-dependent change in BOLD signal was provided by Syndesi along with the formula for the vehicle.
Subjects: Forty-eight male Sprague Dawley rats weighing ca 275-300 g were obtained from Charles River Laboratories (Wilmington, MA, USA). Rat were maintained on a 12:12 hour light:dark cycle with a lights on at 0700 hours and allowed access to food and water ad libitum. All rats were acquired and cared for in accordance with the guidelines published in the Guide for the Care and Use of Laboratory Animals (National Institutes of Health Publications No. 85-23, Revised 1985) and adhered to the National Institutes of Health and the American Association for Laboratory Animal Science guidelines.
Acclimation: To reduce the stress associated with head restraint, rats were acclimated to the restraining system (head holder and body tube) one week prior to their actual imaging session. The design of the restraining system (Animal Imaging Research, Holden MA, USA) included a padded head support obviating the need for ear bars helping to reduce animal discomfort while minimizing motion artifact. These acclimation sessions were run each day for 4-5 consecutive days. Rats were briefly anesthetized with 2-3% isoflurane while being secured into the head holder. The forepaws were secured with tape. When fully conscious, the imaging system is placed into a black opaque box “mock scanner” for 30 min with a tape-recording of the MRI pulse sequence to simulate the bore of the magnet and the imaging protocol. A significant decline in respiration, heart rate, motor movements, and plasma corticosterone has been measured when the first and last acclimation periods are compared (King et al., 2005). The reduction in autonomic and somatic measures of arousal and stress improve the signal resolution and quality of the images.
Image Acquisition: Animals were scanned at 300 MHz using a quadrature transmit/receive volume coil built into the rat head holder and restraining system for awake animal imaging (Animal Imaging Research, Holden, MA, USA). The design of the coil provided complete coverage of the brain from olfactory bulbs to brain stem with excellent B1 field homogeneity. Experiments were conducted using a Bruker Biospec 7.0 T/20-cm USR horizontal magnet (Bruker, Billerica, MA, USA) and a 20-G/cm magnetic field gradient insert (ID=12 cm) capable of a 120-μs rise time. At the beginning of each imaging session, a high-resolution anatomical data set was collected using the RARE pulse sequence [22 slice; 1.0 mm; field of view (FOV) 3.0 cm; matrix size 256×256; repetition time (TR) 2.5 s; echo time (TE) 12 ms; NEX 2; 3 min acquisition time]. Functional images were acquired using a multi-slice half-Fourier acquisition single-shot turbo spin echo (HASTE) pulse sequence. Bruker Paravision automatically finds the basic frequency, shims, power requirements for 90° and 180° pulses and sets the receiver gain. A single scanning session acquired 22 slices, 1.0 mm thick, every 6.0 s (TR), using an effective TE of 48 ms, FOV 3.0 cm, matrix size 96×96, NEX 1, and repeated 450 times for a total scanning time of 45 min. The in-plane pixel resolution was 312 μm2.
Data Processing: Data are coregistered to a mean functional image using SPM8's coregistrational code with the following parameters: Quality: 0.97, Smoothing: 0.35 mm, Separation: 0.5 mm. Gaussian smoothing was performed with a FWHM of 0.8 mm. Images were aligned and registered to the 3D rat brain atlas, segmented and labeled with 171 discrete anatomical regions. The alignment process was facilitated by an interactive graphic user interface. The registration process involved translation, rotation and scaling independently and in all three dimensions. Matrices that transformed each subject's anatomy were used to embed each slice within the atlas. […]

With O=C1C[C@H](c2cc(F)c(F)c(F)c2)CN1Cn1ncnc1Cl [compound of example 1, (4R)-1-[(5-chloro-1H-1,2,4-triazol-1-yl)methyl]-4-(3,4,5-trifluorophenyl)pyrrolidin-2-one] the “effect on the volume of activation (dose response, inverted U)” value (0.1 mg/kg i.p.) was “greatest effect”, the “brain areas significantly activated, low dose versus vehicle” value (0.1 mg/kg versus vehicle, of 171 brain regions) was 30/171 and the “effect on the volume of activation (dose response, inverted U)” value (1.0 mg/kg i.p.) was “little or no activation”. For the same compound, the “median number of positive voxels (positive BOLD volume of activation)” value (shortened to “median number of positive voxels”) (CA1 dorsal, 0.1 mg/kg i.p.) was 23, the “median number of positive voxels” value (CA1 dorsal, 0.3 mg/kg i.p.) was 15 and the “median number of positive voxels” value (CA1 dorsal, 1.0 mg/kg i.p.) was 0. The “median number of positive voxels” value (accumbens core, 0.1 mg/kg i.p.) was 13, the “median number of positive voxels” value (accumbens core, 0.3 mg/kg i.p.) was 3 and the “median number of positive voxels” value (accumbens core, 1.0 mg/kg i.p.) was 0. The “median number of positive voxels” value (accumbens shell, 0.1 mg/kg i.p.) was 8, the “median number of positive voxels” value (accumbens shell, 0.3 mg/kg i.p.) was 10 and the “median number of positive voxels” value (accumbens shell, 1.0 mg/kg i.p.) was 2. For the same compound, the “median number of positive voxels” value (anterior cingulate area, 0.1 mg/kg i.p.) was 67, the “median number of positive voxels” value (anterior cingulate area, 0.3 mg/kg i.p.) was 37 and the “median number of positive voxels” value (anterior cingulate area, 1.0 mg/kg i.p.) was 2. For the same compound, the “median number of positive voxels” value (anterior pretectal nucleus, 0.1 mg/kg i.p.) was 7, the “median number of positive voxels” value (anterior pretectal nucleus, 0.3 mg/kg i.p.) was 5 and the “median number of positive voxels” value (anterior pretectal nucleus, 1.0 mg/kg i.p.) was 0. The “median number of positive voxels” value (central amygdaloid nucleus, 0.1 mg/kg i.p.) was 8, the “median number of positive voxels” value (central amygdaloid nucleus, 0.3 mg/kg i.p.) was 4 and the “median number of positive voxels” value (central amygdaloid nucleus, 1.0 mg/kg i.p.) was 0. The “median number of positive voxels” value (dentate gyrus dorsal, 0.1 mg/kg i.p.) was 17, the “median number of positive voxels” value (dentate gyrus dorsal, 0.3 mg/kg i.p.) was 9 and the “median number of positive voxels” value (dentate gyrus dorsal, 1.0 mg/kg i.p.) was 0. For the same compound, the “median number of positive voxels” value (dentate gyrus ventral, 0.1 mg/kg i.p.) was 14, the “median number of positive voxels” value (dentate gyrus ventral, 0.3 mg/kg i.p.) was 14 and the “median number of positive voxels” value (dentate gyrus ventral, 1.0 mg/kg i.p.) was 0. For the same compound, the “median number of positive voxels” value (dorsal medial striatum, 0.1 mg/kg i.p.) was 39, the “median number of positive voxels” value (dorsal medial striatum, 0.3 mg/kg i.p.) was 30 and the “median number of positive voxels” value (dorsal medial striatum, 1.0 mg/kg i.p.) was 0. The “median number of positive voxels” value (dorsal raphe, 0.1 mg/kg i.p.) was 1, the “median number of positive voxels” value (dorsal raphe, 0.3 mg/kg i.p.) was 0 and the “median number of positive voxels” value (dorsal raphe, 1.0 mg/kg i.p.) was 0. For the same compound, the “median number of positive voxels” value (endopiriform nucleus, 0.1 mg/kg i.p.) was 2, the “median number of positive voxels” value (endopiriform nucleus, 0.3 mg/kg i.p.) was 0 and the “median number of positive voxels” value (endopiriform nucleus, 1.0 mg/kg i.p.) was 0. The “median number of positive voxels” value (granular cell layer, 0.1 mg/kg i.p.) was 70, the “median number of positive voxels” value (granular cell layer, 0.3 mg/kg i.p.) was 52 and the “median number of positive voxels” value (granular cell layer, 1.0 mg/kg i.p.) was 9. For the same compound, the “median number of positive voxels” value (habenula nucleus, 0.1 mg/kg i.p.) was 11, the “median number of positive voxels” value (habenula nucleus, 0.3 mg/kg i.p.) was 10 and the “median number of positive voxels” value (habenula nucleus, 1.0 mg/kg i.p.) was 0. For the same compound, the “median number of positive voxels” value (infralimbic ctx, 0.1 mg/kg i.p.) was 19, the “median number of positive voxels” value (infralimbic ctx, 0.3 mg/kg i.p.) was 21 and the “median number of positive voxels” value (infralimbic ctx, 1.0 mg/kg i.p.) was 4. For the same compound, the “median number of positive voxels” value (lateral amygdaloid nucleus, 0.1 mg/kg i.p.) was 5, the “median number of positive voxels” value (lateral hypothalamus, 0.1 mg/kg i.p.) was 56 and the “median number of positive voxels” value (lateral hypothalamus, 0.3 mg/kg i.p.) was 59. The “median number of positive voxels” value (lateral hypothalamus, 1.0 mg/kg i.p.) was 2, the “median number of positive voxels” value (lateral orbital ctx, 0.1 mg/kg i.p.) was 29 and the “median number of positive voxels” value (lateral orbital ctx, 0.3 mg/kg i.p.) was 14. For the same compound, the “median number of positive voxels” value (lateral orbital ctx, 1.0 mg/kg i.p.) was 1, the “median number of positive voxels” value (lateral posterior thalamic nucleus, 0.1 mg/kg i.p.) was 11 and the “median number of positive voxels” value (lateral posterior thalamic nucleus, 0.3 mg/kg i.p.) was 3. The “median number of positive voxels” value (lateral posterior thalamic nucleus, 1.0 mg/kg i.p.) was 0, the “median number of positive voxels” value (lateral preoptic area, 0.1 mg/kg i.p.) was 12 and the “median number of positive voxels” value (lateral preoptic area, 0.3 mg/kg i.p.) was 3. For the same compound, the “median number of positive voxels” value (lateral preoptic area, 1.0 mg/kg i.p.) was 0, the “median number of positive voxels” value (lateral septal nucleus, 0.1 mg/kg i.p.) was 34 and the “median number of positive voxels” value (lateral septal nucleus, 0.3 mg/kg i.p.) was 35. For the same compound, the “median number of positive voxels” value (lateral septal nucleus, 1.0 mg/kg i.p.) was 4, the “median number of positive voxels” value (paraventricular nucleus (first entry, P 0.003), 0.1 mg/kg i.p.) was 4 and the “median number of positive voxels” value (paraventricular nucleus (first entry, P 0.003), 0.3 mg/kg i.p.) was 5. The “median number of positive voxels” value (paraventricular nucleus (first entry, P 0.003), 1.0 mg/kg i.p.) was 0, the “median number of positive voxels” value (prelimbic ctx, 0.1 mg/kg i.p.) was 50 and the “median number of positive voxels” value (prelimbic ctx, 0.3 mg/kg i.p.) was 32. The “median number of positive voxels” value (prelimbic ctx, 1.0 mg/kg i.p.) was 4, the “median number of positive voxels” value (reticular nucleus midbrain, 0.1 mg/kg i.p.) was 19 and the “median number of positive voxels” value (reticular nucleus midbrain, 0.3 mg/kg i.p.) was 18. For the same compound, the “median number of positive voxels” value (reticular nucleus midbrain, 1.0 mg/kg i.p.) was 1, the “median number of positive voxels” value (retrosplenial caudal ctx, 0.1 mg/kg i.p.) was 43 and the “median number of positive voxels” value (retrosplenial caudal ctx, 0.3 mg/kg i.p.) was 27. For the same compound, the “median number of positive voxels” value (retrosplenial caudal ctx, 1.0 mg/kg i.p.) was 0, the “median number of positive voxels” value (subiculum dorsal, 0.1 mg/kg i.p.) was 13 and the “median number of positive voxels” value (subiculum dorsal, 0.3 mg/kg i.p.) was 12. For the same compound, the “median number of positive voxels” value (subiculum dorsal, 1.0 mg/kg i.p.) was 0, the “median number of positive voxels” value (substantia nigra reticularis, 0.1 mg/kg i.p.) was 19 and the “median number of positive voxels” value (substantia nigra reticularis, 0.3 mg/kg i.p.) was 22. The “median number of positive voxels” value (substantia nigra reticularis, 1.0 mg/kg i.p.) was 2, the “median number of positive voxels” value (triangular septal nucleus, 0.1 mg/kg i.p.) was 4 and the “median number of positive voxels” value (triangular septal nucleus, 0.3 mg/kg i.p.) was 1. For the same compound, the “median number of positive voxels” value (triangular septal nucleus, 1.0 mg/kg i.p.) was 0, the “brain areas significantly affected by the four treatments” value (vehicle, 0.1, 0.3, 1.0 mg/kg, of 171 brain regions) was 71/171 and the “median number of positive voxels” value (ventral lateral striatum, 0.1 mg/kg i.p.) was 82. For the same compound, the “median number of positive voxels” value (ventral lateral striatum, 0.3 mg/kg i.p.) was 1, the “median number of positive voxels” value (ventral lateral striatum, 1.0 mg/kg i.p.) was 0 and the “median number of positive voxels” value (ventral medial striatum, 0.1 mg/kg i.p.) was 47. For the same compound, the “median number of positive voxels” value (ventral medial striatum, 0.3 mg/kg i.p.) was 18, the “median number of positive voxels” value (ventral medial striatum, 1.0 mg/kg i.p.) was 0 and the “median number of positive voxels” value (ventral orbital ctx, 0.1 mg/kg i.p.) was 19. For the same compound, the “median number of positive voxels” value (ventral orbital ctx, 0.3 mg/kg i.p.) was 4, the “median number of positive voxels” value (ventral orbital ctx, 1.0 mg/kg i.p.) was 1 and the “median number of positive voxels” value (ventral subiculum, 0.1 mg/kg i.p.) was 26. The “median number of positive voxels” value (ventral subiculum, 0.3 mg/kg i.p.) was 25, the “median number of positive voxels” value (ventral subiculum, 1.0 mg/kg i.p.) was 3 and the “median number of positive voxels” value (ventral tegmental area, 0.1 mg/kg i.p.) was 8. The “median number of positive voxels” value (ventral tegmental area, 0.3 mg/kg i.p.) was 5, the “median number of positive voxels” value (ventral tegmental area, 1.0 mg/kg i.p.) was 0 and the “median number of positive voxels” value (visual 1 ctx, 0.1 mg/kg i.p.) was 27. For the same compound, the “median number of positive voxels” value (visual 1 ctx, 0.3 mg/kg i.p.) was 21, the “median number of positive voxels” value (visual 1 ctx, 1.0 mg/kg i.p.) was 0 and the “median number of positive voxels” value (zona incerta, 0.1 mg/kg i.p.) was 9. For the same compound, the “median number of positive voxels” value (zona incerta, 0.3 mg/kg i.p.) was 3 and the “median number of positive voxels” value (zona incerta, 1.0 mg/kg i.p.) was 0.
